The values that follow come from ChEMBL document CHEMBL2176914, “Selective histone deacetylase 6 inhibitors bearing substituted urea linkers inhibit melanoma cell growth” (J Med Chem, 2012).

Calls of active or inactive are those of the source. The rule behind the calls is not given here.

The test system of assay [1] is B16. In words: Growth inhibition of mouse B16 cells incubated for 48 hrs by MTT assay. The class given is functional. Particulars: for GI50: B16, 48 h.
The species named for assay [2] is Homo sapiens. As to the kind of experiment: Selectivity index, ratio of IC50 for human recombinant HDAC1 to IC50 for human recombinant HDAC6.
In assay [3] the test system is B16. In words: Inhibition of Class 1 histone deacetylase in mouse B16 cells assessed as increase in histone H3 acetylation at 10 uM incubated for 24 hrs by Western blotting. The class given is cell-based. In general terms: A western blot detects proteins with antibodies after separation by electrophoresis.
Assay [4] concerns B16. As to the kind of experiment: Inhibition of Class 1 histone deacetylase in mouse B16 cells assessed as increase in histone H3 acetylation at 1 uM incubated for 24 hrs by Western blotting. The class given is cell-based.
The target in assay [5] is T1, Protein deacetylase HDAC6 (Mus musculus) (UniProt Q9Z2V5).
T1 sequence (whole entry): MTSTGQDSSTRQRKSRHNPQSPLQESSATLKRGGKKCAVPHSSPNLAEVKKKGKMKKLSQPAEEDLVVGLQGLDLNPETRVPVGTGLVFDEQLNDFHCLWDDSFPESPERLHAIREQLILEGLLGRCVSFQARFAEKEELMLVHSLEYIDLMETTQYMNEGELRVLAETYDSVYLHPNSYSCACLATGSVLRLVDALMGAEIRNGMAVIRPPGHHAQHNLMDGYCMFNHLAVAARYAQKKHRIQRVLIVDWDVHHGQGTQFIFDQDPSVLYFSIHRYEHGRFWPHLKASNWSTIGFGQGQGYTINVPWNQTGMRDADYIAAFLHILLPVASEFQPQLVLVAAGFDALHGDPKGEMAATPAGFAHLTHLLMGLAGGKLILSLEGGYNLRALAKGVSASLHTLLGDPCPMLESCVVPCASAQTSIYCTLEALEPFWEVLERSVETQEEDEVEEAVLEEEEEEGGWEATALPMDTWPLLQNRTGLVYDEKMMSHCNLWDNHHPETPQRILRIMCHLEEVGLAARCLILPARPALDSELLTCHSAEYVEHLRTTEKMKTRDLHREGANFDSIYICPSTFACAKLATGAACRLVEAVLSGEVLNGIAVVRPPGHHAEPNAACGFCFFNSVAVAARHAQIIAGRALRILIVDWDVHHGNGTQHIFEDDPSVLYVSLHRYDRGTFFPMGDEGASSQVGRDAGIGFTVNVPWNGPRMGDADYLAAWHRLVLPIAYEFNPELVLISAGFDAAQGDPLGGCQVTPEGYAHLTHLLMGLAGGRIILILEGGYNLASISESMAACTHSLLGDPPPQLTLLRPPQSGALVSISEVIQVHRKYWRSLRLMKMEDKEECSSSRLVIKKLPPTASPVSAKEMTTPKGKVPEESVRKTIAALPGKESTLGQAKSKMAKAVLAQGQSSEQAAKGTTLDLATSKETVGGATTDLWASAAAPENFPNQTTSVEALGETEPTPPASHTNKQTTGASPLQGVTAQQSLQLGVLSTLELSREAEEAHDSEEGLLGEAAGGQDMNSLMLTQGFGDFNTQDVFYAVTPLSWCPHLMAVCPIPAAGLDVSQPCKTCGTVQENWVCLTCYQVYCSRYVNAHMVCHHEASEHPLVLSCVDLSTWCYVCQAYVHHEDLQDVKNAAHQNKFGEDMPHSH
In words: Inhibition of HDAC6 in mouse B16 cells assessed as increase in acetyl alpha-tubulin level incubated for 24 hrs by Western blotting. It is filed as cell-based.

In assay [6] the test system is B16. As to the kind of experiment: Inhibition of Class 1 histone deacetylase in mouse B16 cells assessed as increase in histone H3 acetylation at 1 to 100 nM incubated for 24 hrs by Western blotting. It is filed as cell-based.

The term GI50 denotes the concentration at which growth is held to half of that of the control. Lower therefore signals greater sensitivity of the cells. `CN1CCc2c(c3ccccc3n2Cc2ccc(C(=O)NO)cc2)C1` [TUBASTATIN A]: in assay [1], the “growth inhibition (GI)” value was “Dose-dependent effect” and halving of growth (GI50) required 40.5 µM.

Consider `CCCCN(C(=O)NCc1ccc(C(=O)NO)cc1)c1ccccc1`, for which, in assay [1], the “growth inhibition (GI)” value is “Dose-dependent effect” and halving of growth (GI50) required 65.8 µM. In assay [2], the Ratio IC50 was 322.

As for `COCCN(Cc1ccc(C(=O)NO)cc1)C(=O)Nc1ccccc1`, in assay [1], the “growth inhibition (GI)” value is “Dose-dependent effect”. Also, in assay [2], the Ratio IC50 amounted to 243.

For the compound `COc1ccccc1NC(=O)NCc1ccc(C(=O)NO)cc1`, the Ratio IC50 in assay [2] stood at 2.

With `COc1ccccc1NC(=O)N(CCCO)Cc1ccc(C(=O)NO)cc1`, in assay [1], the “growth inhibition (GI)” value is “Dose-dependent effect” and the GI50 was greater than 100 µM. Further, the Ratio IC50 in assay [2] is 803.

Turning to `COCCCN(C(=O)NCc1ccc(C(=O)NO)cc1)c1ccccc1`, in assay [1], the “growth inhibition (GI)” value is “Dose-dependent effect” and the concentration for 50% growth inhibition (GI50) is greater than 100 µM. The Ratio IC50 in assay [2] turned out to be 226.

In the case of `COc1ccccc1NC(=O)N(CCc1c[nH]c2ccccc12)Cc1ccc(C(=O)NO)cc1`, in assay [1], the “growth inhibition (GI)” value was “Dose-dependent effect” and growth was halved (GI50) at 30.4 µM. In addition, in assay [2], the Ratio IC50 was found to be 19.

Turning to `CCN(C(=O)NCc1ccc(C(=O)NO)cc1)c1ccccc1`, in assay [1], the “growth inhibition (GI)” value is “Dose-dependent effect” and the concentration for 50% growth inhibition (GI50) is greater than 100 µM. Moreover, in assay [2], the Ratio IC50 came to 330.

For the compound `COc1ccccc1NC(=O)N(CCCN(C)C)Cc1ccc(C(=O)NO)cc1`, in assay [1], the “growth inhibition (GI)” value is “Dose-dependent effect” and growth was halved (GI50) at 75.3 µM. Moreover, the Ratio IC50 in assay [2] was 6.

On to `Cc1[nH]c2ccccc2c1CCNCc1ccc(/C=C/C(=O)NO)cc1` [PANOBINOSTAT], for which, in assay [1], the “growth inhibition (GI)” value was “Dose-dependent effect” and it took 0.15 µM to inhibit growth by half (GI50).

Regarding `CCCCN(Cc1ccc(C(=O)NO)cc1)C(=O)Nc1ccccc1`, the inhibition result in assay [3] and in assay [4] was “Active” each time. Further, the “growth inhibition (GI)” value in assay [1] was “Dose-dependent effect”. For the same compound, the inhibition result in assay [5] is “Dose-dependent effect”. The inhibition entry in assay [6] was “inactive”.

With `COCCCN(Cc1ccc(C(=O)NO)cc1)C(=O)Nc1ccccc1`, in assay [1], the “growth inhibition (GI)” value is “Dose-dependent effect” and the 50% growth inhibitory concentration (GI50) was found to be 22.2 µM. The Ratio IC50 in assay [2] is 443.

As to `COc1ccccc1NC(=O)N(CCc1ccc(O)cc1)Cc1ccc(C(=O)NO)cc1`, in assay [1], the “growth inhibition (GI)” value is “Dose-dependent effect” and halving of growth (GI50) required 18.4 µM. Besides, in assay [2], the Ratio IC50 was 292.

Take `O=C(NO)c1ccc(CN(CCc2ccccc2)C(=O)Nc2ccccc2)cc1`: in assay [1], the “growth inhibition (GI)” value was “Dose-dependent effect” and halving of growth (GI50) required 15.4 µM. Besides, the Ratio IC50 in assay [2] stood at 222.
